In publication PMC11994961, “In Vivo pharmacokinetic interactions of ribociclib with rivaroxaban and apixaban in rats: implications for increased drug exposure and dose adjustments” (Frontiers in Pharmacology, 2025):
Where two headings read alike, the source gives them in different places.

How the values were obtained:
[1] = design: method as in Wang et al., 2023; conditions: rats, with almonertinib; ref Wang et al., 2023; cited from earlier work
[2] = design: method as in Hindley et al., 2023; conditions: ref Hindley et al., 2023; cited from earlier work
[3] = Pharmacokinetic study of apixaban in rats, alone and after ribociclib (UPLC-MS/MS plasma levels); type: in vivo, Sprague-Dawley rats; conditions: for AUC(0-inf) / Cmax / Tmax / half-life / CL/F / MRT inf / MRT last / Vd/F: po, 0.5 mg/kg; for CL/F: read-out: CLz/F (converted); for MRT inf: read-out: MRT0- ∞; for MRT last: read-out: MRT0-t; for Vd/F: read-out: Vz/F
Protocol: Experimental animals were randomly divided into nine groups (n = 6, Table 1). Ribociclib was suspended in methylcellulose (MC), rivaroxaban was prepared in hydroxypropyl methylcellulose (HPMC), and apixaban was suspended in 5% DMSO in water. To achieve steady-state blood concentrations, a drug typically requires five to seven half-lives. Based on this principle, ribociclib was administered orally for eight consecutive days, while rivaroxaban and apixaban were administered orally for five consecutive days to ensure steady-state concentrations were reached before further analysis.
Approximately 0.1 mL of blood was collected into heparinized tubes via the orbitalat specified time points before and after the final drug administration. For apixaban, blood samples were collected at 0, 0.083, 0.167, 0.25, 0.333, 0.5, 0.75, 1, 3, 5, 7, 10, and 12 h. For rivaroxaban, sampling was conducted at 0, 0.167, 0.333, 0.5, 0.75, 1.5, 2, 3, 4, 5, 6, 8, 10, 12, and 24 h. For ribociclib, samples were taken at 0, 0.5, 1, 2, 4, 5, 6, 8, 10, 12, 24, and 48 h. Blood samples were centrifuged at 3,500 rpm for 10 min, and the supernatant was collected and stored at −80°C until processing for UPLC-MS/MS.
Apixaban and rivaroxaban concentrations in plasma samples were determined using our previously established UPLC-MS/MS method ([Wang et al., 2023]). Ribociclib concentrations were quantified using an LC-30A UPLC system (Shimadzu, Kyoto, Japan) coupled with a Sciex Triple Quad 5500 tandem quadrupole mass spectrometer (AB Sciex, Framingham, MA, United States) equipped with an electrospray ionization interface. Chromatographic separation was performed using a Welch Boltimate column (2.1 mm × 100 mm, 2.7 μm) maintained at 40°C. The mobile phase was composed of water containing 0.1% formic acid (phase A) and acetonitrile (phase B). The flow rate was held constant at 0.3 mL/min. The gradient elution protocol was as follows: 0–2.5 min, 60% B; 2.5–3.5 min, 60%–90% B; 3.5–5.5 min, 90% B; 5.5–5.6 min, 90%–60% B; 5.6–6.6 min, 60% B. The injection volume was 1 μL.
Pharmacokinetic parameters were calculated based on a non-compartmental model using DAS 2.1.1 Software (Mathematical Pharmacology Professional Committee of China, Shanghai, China). The area under the concentration–time curve (AUC), maximum plasma concentration (Cmax), time to maximum plasma concentration (Tmax), the time required to eliminate half of the plasma drug concentration (t1/2), clearance of drug plasma volume per unit time (CLz/F), apparent volume distribution (Vz/F), mean residence time (MRT) and the absorption rate constant (Ka) are all expressed as mean ± standard deviation (SD). SPSS 25.0 statistical software (SPSS Inc., Chicago, IL, United States) was applied to statistically analyze the mainpharmacokinetic parameters. Shapiro-Wilk test was used to assess whether the data were normally distributed, t test was used for parameters conforming to the normal distribution, and Mann-Whitney U test was used for parameters not conforming to the normal distribution. Statistical comparisons were conducted using a analysis of variance, t-test or nonparametric rank-sum test depending on the data type. A P-value <0.05 was deemed statistically significant.

[4] = API 0.5 mg/kg after multiple doses of RIBO vs API alone
[5] = Sprague-Dawley, rat, plasma, API 0.5 mg/kg after RIBO 60 mg/kg for 8 days
[6] = Sprague-Dawley, rat, plasma, oral API 0.5 mg/kg alone

COc1ccc(-n2nc(C(N)=O)c3c2C(=O)N(c2ccc(N4CCCCC4=O)cc2)CC3)cc1 [API, apixaban]
increase in AUC [1]: over three fold increases | increase in Cmax [1]: over three fold increases | plasma protein binding [2]: approximately 87% | AUC(0-t) ([3]; API 0.5 mg/kg after RIBO 60 mg/kg for 8 days): 608.21 ± 196.17 ng·h/mL | CLz/F was decreased by [3, 4]: 32.23% | difference in AUC0-t [3, 4]: not statistically significant | difference in Cmax [3, 4]: not statistically significant | difference in Tmax [3, 4]: not statistically significant | increase of MRT0- ∞ [3, 4]: 61.41% | increase of MRT0-t [3, 4]: 14.45% | increase of t1/2z [3, 4]: 115.90% | AUC(0-t) ([3]; Sprague-Dawley, rat, plasma, oral API 0.5 mg/kg alone, read-out: AUC0-t): 409 ± 55.3 ng·h/mL | AUC(0-inf) [3, 5]: 675 ± 221 ng·h/mL | Cmax [3, 5]: 156 ± 42.4 ng/mL | Tmax [3, 5]: 0.75 ± 0.16 h | half-life [3, 5]: 5.16 ± 3.22 h | CL/F [3, 5]: 13.7 mL/min/kg | MRT inf [3, 5]: 4.81 ± 2.07 h | MRT last [3, 5]: 3.01 ± 0.3 h | Vd/F [3, 5]: 5.57 ± 2.63 L/kg | AUC(0-inf) [3, 6]: 420 ± 54.2 ng·h/mL | Cmax [3, 6]: 140 ± 29.4 ng/mL | Tmax [3, 6]: 0.88 ± 0.14 h | half-life [3, 6]: 2.39 ± 0.53 h | CL/F [3, 6]: 20.2 mL/min/kg | MRT inf [3, 6]: 2.98 ± 0.32 h | MRT last [3, 6]: 2.63 ± 0.1 h | Vd/F [3, 6]: 4.16 ± 1.07 L/kg
